Structures are written as SMILES. Numbers after ± are expanded uncertainties.

Broadly, the mass density is mass per unit of volume.

For the data set the following is noted: 101.33 kPa, Liquid, Vibrating tube method.

`CCCCCCn1cc[n+](C)c1C.F[B-](F)(F)F` [1-hexyl-2,3-dimethylimidazolium tetrafluoroborate]: the mass density by setting is: (313.15 K) 1129.8 ± 2.4 kg/m3; (323.15 K) 1123.3 ± 2.4 kg/m3; (333.15 K) 1116.8 ± 2.4 kg/m3; (343.15 K) 1110.3 ± 2.4 kg/m3; (353.15 K) 1103.87 ± 2.4 kg/m3.

These data come from the NIST ThermoML archive (doi:10.1016/j.jct.2018.05.017).
